Assay results: patent publication US20210139497A1, “THIENOCYCLIC COMPOUND AND SYNTHESIS METHOD THEREFOR AND APPLICATION THEREOF” (SHANGHAI YUYAO BIOTECH LTD., priority 2017, published 2021)

How the values were obtained:
[1] = target: T1, mouse PGE2 receptor EP4 subtype (mEP4) (Mus musculus, UniProt P32240); assay: Calcium flux of mouse prostaglandin E2 receptor EP4 subtype; assay type: cell-based; settings: CHO-K1-Gα16 cells overexpressing mEP4, calcium flux activated by prostaglandin E2; read-out: mEP4 Ca^2+ IC50
T1 construct: expressed in transfected cells; host or cells: CHO-K1-Gα16
T1 sequence (P32240 whole entry): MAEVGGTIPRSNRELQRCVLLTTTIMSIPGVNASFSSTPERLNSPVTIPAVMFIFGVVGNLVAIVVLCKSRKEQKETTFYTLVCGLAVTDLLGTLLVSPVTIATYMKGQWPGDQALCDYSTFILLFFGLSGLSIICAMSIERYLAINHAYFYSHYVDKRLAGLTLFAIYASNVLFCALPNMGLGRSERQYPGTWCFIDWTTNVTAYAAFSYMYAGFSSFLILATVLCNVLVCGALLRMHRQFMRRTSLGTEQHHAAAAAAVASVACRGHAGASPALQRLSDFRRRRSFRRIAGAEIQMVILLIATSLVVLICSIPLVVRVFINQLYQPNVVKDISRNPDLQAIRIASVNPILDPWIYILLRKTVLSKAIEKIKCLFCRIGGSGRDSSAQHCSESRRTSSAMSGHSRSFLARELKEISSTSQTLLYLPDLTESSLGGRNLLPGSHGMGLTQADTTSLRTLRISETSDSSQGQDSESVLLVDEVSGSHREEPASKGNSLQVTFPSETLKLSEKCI
Description: (§1) CHO-K1-Gα16 cells at the logarithmic growth phase were transfected with EP4 overexpressing vector by Lipofectamine 2000 and then seeded in a 96-well plate (Falcon, CA) and cultured at 20000 cells per 100 μL culture medium overnight. On the second day, every single well were added with 100 μL calcium 5 detection reagents (Molecular Devices) and incubated in incubator at 37° C., 5% CO2 for 45 minutes. The compounds were diluted in HBSS detection buffer, then added to 96-well plates. After incubated for 20 min at room temperature away from light, certain concentration of prostaglandin E2 was used to activate calcium flux of cells for detection (Flexstation 3, MD, CA).
(§2) Calculate the IC50 of the compounds of the invention in inhibiting the calcium flux of human PGE2 receptor EP4 subtype (hEP4) and mouse PGE2 receptor EP4 subtype (mEP4) (i.e. the concentration of drugs at which the intracellular Ca^2+ flux is inhibited by half after overexpressing hEP4 and mEP4 receptors in CHO-K1-Gα16 cells). The IC50 of the drugs were calculated using GraphPad Prism 5.

[2] = Cytotoxicity evaluation (CCK8), PANC02; settings: mouse, PANC02 pancreatic cancer cells
Description: (§5) Cells with a density of 2000-8000 cells per 100 μL medium were seeded in 96-well plates (Falcon, CA) and incubated for 24 hours, then treated with drugs having different concentration gradient (at least 4 replicates per concentration) and incubated at 37° C. in 5% CO2 incubator for 72 hours. Then cell viability was detected by CCK8 method. That is to say, add 10 μL CCK8 to each well and incubate for 0.33-2 h, and the OD values are read by microplate reader at 450 nm. The inhibition rate on cell survival of compounds with each concentration were calculated.
(§6) Inhibition rate on cell survival=(OD value of groups with each concentration/OD
(§7) value of control group)×100%±standard deviation.
(§8) The IC50 of drugs were calculated using GraphPad Prism 5.0.

[3] = Cytotoxicity evaluation (CCK8), EMT-6; settings: mouse, EMT-6 breast cancer cells
Description: as §5, §6, §7, §8

[4] = Cytotoxicity evaluation (CCK8), MOSJ; settings: mouse, MOSJ osteosarcoma cells
Description: as §5, §6, §7, §8

[5] = target: T2, human prostaglandin E2 receptor EP3 subtype (Homo sapiens, UniProt P43115); assay: Calcium flux of human prostaglandin E2 receptor EP3 subtype; assay type: cell-based; settings: CHO-K1-Gα16 cells overexpressing human EP3, activated by prostaglandin E2; read-out: hEP3 Ca^2+ IC50
T2 construct: expressed in transfected cells; host or cells: CHO-K1-Gα16
T2 sequence (P43115 1-390): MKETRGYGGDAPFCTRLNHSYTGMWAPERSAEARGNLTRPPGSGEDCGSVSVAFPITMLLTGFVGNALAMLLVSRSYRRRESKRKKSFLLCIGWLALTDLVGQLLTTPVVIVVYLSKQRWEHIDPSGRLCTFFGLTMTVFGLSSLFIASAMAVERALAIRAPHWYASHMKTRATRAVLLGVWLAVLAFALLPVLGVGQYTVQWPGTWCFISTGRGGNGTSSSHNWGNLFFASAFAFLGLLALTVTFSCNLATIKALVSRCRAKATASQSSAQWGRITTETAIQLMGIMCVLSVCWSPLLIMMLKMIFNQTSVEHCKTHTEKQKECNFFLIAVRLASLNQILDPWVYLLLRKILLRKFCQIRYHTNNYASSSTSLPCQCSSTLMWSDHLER
Description: (§3) CHO-K1-Gα16 cells at the logarithmic growth phase were transfected with human prostaglandin E2 Receptor subtypes EP1, EP2 or EP3 overexpressing vector by Lipofectamine 2000, then seeded in a 96-well plate (Falcon, CA) at a density of 20000 cells per 100 μL culture medium for overnight culture. On the second day, every single well were added with 100 μL calcium 5 detection reagents (Molecular Devices) and incubated in incubator at 37° C., 5% CO2 for 45 minutes. The compounds were diluted with HBSS detection buffer, then were added to 96-well plates. After 20 min incubation at room temperature in the dark, prostaglandin E2 at certain concentration was used to activate calcium flux of cells for detection (Flexstation 3, MD, CA).
(§4) Calculate the IC50 of the compounds of the invention in inhibiting the calcium flux of human EP1, EP2, and EP3 receptor (i.e. the concentration of drugs at which the intracellular Ca^2+ flux being inhibited by half after overexpressing human EP1, EP2, and EP3 receptors in CHO-K1-Gα16 cells). The IC50 of the drugs were calculated using GraphPad Prism 5.

[6] = Cytotoxicity evaluation (CCK8), 293; settings: human
[7] = target: T3, human PGE2 receptor EP4 subtype (hEP4) (Homo sapiens, UniProt P35408); assay: Calcium flux of human prostaglandin E2 receptor EP4 subtype; assay type: cell-based; settings: CHO-K1-Gα16 cells overexpressing hEP4, calcium flux activated by prostaglandin E2; read-out: hEP4 Ca^2+ IC50
T3 construct: expressed in transfected cells; host or cells: CHO-K1-Gα16
T3 sequence (P35408 whole entry): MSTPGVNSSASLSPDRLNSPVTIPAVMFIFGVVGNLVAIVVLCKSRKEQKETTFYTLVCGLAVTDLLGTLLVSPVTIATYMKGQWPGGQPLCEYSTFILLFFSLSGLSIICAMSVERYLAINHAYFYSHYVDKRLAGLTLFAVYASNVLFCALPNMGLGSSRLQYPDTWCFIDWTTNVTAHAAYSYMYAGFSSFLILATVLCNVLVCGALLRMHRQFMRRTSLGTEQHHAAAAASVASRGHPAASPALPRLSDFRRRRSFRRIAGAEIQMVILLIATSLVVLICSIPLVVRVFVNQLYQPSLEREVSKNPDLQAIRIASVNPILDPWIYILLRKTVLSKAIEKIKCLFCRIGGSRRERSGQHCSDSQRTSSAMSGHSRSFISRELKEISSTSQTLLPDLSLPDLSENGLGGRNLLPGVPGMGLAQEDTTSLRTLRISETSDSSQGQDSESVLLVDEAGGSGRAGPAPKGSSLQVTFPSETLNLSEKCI
Description: as §1, §2

[8] = target: T4, human prostaglandin E2 receptor EP2 subtype (Homo sapiens, UniProt P43116); assay: Calcium flux of human prostaglandin E2 receptor EP2 subtype; assay type: cell-based; settings: CHO-K1-Gα16 cells overexpressing human EP2, activated by prostaglandin E2; read-out: hEP2 Ca^2+ IC50
T4 construct: expressed in transfected cells; host or cells: CHO-K1-Gα16
T4 sequence (P43116 whole entry): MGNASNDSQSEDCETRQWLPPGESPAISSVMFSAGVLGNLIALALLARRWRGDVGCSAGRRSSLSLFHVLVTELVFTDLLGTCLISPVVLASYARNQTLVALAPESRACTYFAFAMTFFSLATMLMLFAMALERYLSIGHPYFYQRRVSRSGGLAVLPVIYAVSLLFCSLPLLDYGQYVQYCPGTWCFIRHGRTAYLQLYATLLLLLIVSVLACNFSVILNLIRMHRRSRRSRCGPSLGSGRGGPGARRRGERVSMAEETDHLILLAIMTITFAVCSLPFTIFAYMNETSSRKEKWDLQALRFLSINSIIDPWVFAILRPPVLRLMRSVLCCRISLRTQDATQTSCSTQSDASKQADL
Description: as §3, §4

[9] = target: T5, human prostaglandin E2 receptor EP1 subtype (Homo sapiens, UniProt P34995); assay: Calcium flux of human prostaglandin E2 receptor EP1 subtype; assay type: cell-based; settings: CHO-K1-Gα16 cells overexpressing human EP1, activated by prostaglandin E2; read-out: hEP1 Ca^2+ IC50
T5 construct: expressed in transfected cells; host or cells: CHO-K1-Gα16
T5 sequence (P34995 1-402): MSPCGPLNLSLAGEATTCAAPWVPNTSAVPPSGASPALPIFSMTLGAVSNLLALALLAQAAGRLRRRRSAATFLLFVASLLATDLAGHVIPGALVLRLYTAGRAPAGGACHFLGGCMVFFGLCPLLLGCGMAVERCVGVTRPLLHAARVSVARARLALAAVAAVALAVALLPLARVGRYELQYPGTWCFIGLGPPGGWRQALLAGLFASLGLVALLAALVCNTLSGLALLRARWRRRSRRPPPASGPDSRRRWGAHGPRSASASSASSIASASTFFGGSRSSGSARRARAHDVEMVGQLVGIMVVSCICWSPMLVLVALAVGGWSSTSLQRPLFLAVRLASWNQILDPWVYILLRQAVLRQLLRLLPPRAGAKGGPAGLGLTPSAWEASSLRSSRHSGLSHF
Description: as §3, §4

[10] = Cytotoxicity evaluation (CCK8), CT26; settings: mouse, CT26 intestinal cancer cells
Description: as §5, §6, §7, §8

[11] = Cytotoxicity evaluation (CCK8), LLC; settings: mouse, LLC lung cancer cells
Description: as §5, §6, §7, §8

[12] = tested on: mouse colon cancer cells CT26; assay: CT26 subcutaneous tumor-bearing model, Balb/c mice; assay type: in vivo; settings: female Balb/c mice, 75 mg/kg/day, 14 days, vs negative control, FIG. 3
Description: 2×10^6 mouse colon cancer cells CT26 were subcutaneously injected into right side of each mouse's back (female Balb/c mouse, 6-8 weeks). The length and width of subcutaneous tumors in the back of mice were measured using vernier calipers, and tumor volume (mm^3)=(length(mm)×width(mm)×width(mm)×n)/6 was calculated. […] The volume of subcutaneous tumors on the back of mice was measured and counted twice a week. Continuous administrated for a period of 14 days and the changes of tumor volumes were recorded.
Mouse colon cancer cells MC38, pancreatic cancer cells Pan02, breast cancer cells 4T1, prostate cancer cells RM-1 and colon cancer cells CT26 were cultivated to required amount. Then, cells at a cell density of 5×10^5-2×10^6 were subcutaneously injected into right side of the back of selected female C57BL/6 mice aging 6-8 weeks (MC38, Pan02), male C57BL/6 mice aging 6-8 weeks (RM-1), female Balb/c mice aging 6-8 weeks (4T1, CT26) and female Balb/c nude mice aging 6-8 weeks (CT26). The length and width of subcutaneous tumors in the backs of mice were measured using vernier calipers, and tumor volume(mm^3)=(length(mm)×width(mm)×width(mm)×n)/6 was calculated. […] The volume of subcutaneous tumors on the back of mice was measured and counted 2-4 times a week. Continuous administrated for 12-22 days and the changes of tumor volumes were recorded.

SMILES	IC50 [1]	IC50 at 72 h [2]	IC50 at 72 h [3]	IC50 at 72 h [4]	IC50 [5]	IC50 at 72 h [6]	IC50 [7]	IC50 [8]	IC50 [9]	IC50 at 72 h [10]	IC50 at 72 h [11]	Inhibitory effect on growth of subcutaneous CT26 colon cancer [12]
C[C@H](NC(=O)c1c(CCc2ccc(F)cc2)sc2c1CCCC2)c1ccc(C(=O)O)cc1 [YJ108, (S)-4-(1-(2-(4-fluorophenethyl)-4,5,6,7-tetrahydrobenzo[b]thiophene-3-carboxamido)ethyl)benzoic Acid]	< 0.1 µM	> 100 µM	> 100 µM	> 100 µM	> 10 µM	> 100 µM	< 0.1 µM	> 10 µM	> 10 µM	> 100 µM	> 100 µM	–
C[C@H](NC(=O)c1c(CCc2cccc(C(F)(F)F)c2)sc2c1CCOC2)c1ccc(C(=O)O)cc1 [YJ112, (S)-4-(1-(2-(3-(trifluoromethyl)phenethyl)-5,7-dihydro-4H-thieno[2,3-c]pyran-3-carboxamido)ethyl)benzoic Acid]	0.1 to 1 µM	> 100 µM	> 100 µM	> 100 µM	> 10 µM	> 100 µM	< 0.1 µM	> 10 µM	> 10 µM	> 100 µM	> 100 µM	–
C[C@H](NC(=O)c1c(C#Cc2ccc(F)cc2)sc2c1CCCCC2)c1ccc(C(=O)O)cc1 [YJ104, (S)-4-(1-(2-((4-fluorophenyl)ethynyl)-5,6,7,8-tetrahydro-4H-cyclohepta[b]thiophene-3-carboxamido)ethyl)benzoic Acid]	0.1 to 1 µM	> 100 µM	> 100 µM	> 100 µM	> 10 µM	> 100 µM	< 0.1 µM	> 10 µM	> 10 µM	> 100 µM	> 100 µM	–
O=C(O)c1ccc(CNC(=O)c2c(Cc3ccc(F)cc3)sc3c2CCOC3)cc1 [YJ120, 4-((2-(4-fluorobenzyl)-4,7-dihydro-5H-thieno[2,3-c]pyran-3-carboxamido)methyl)benzoic Acid]	< 0.1 µM	> 100 µM	> 100 µM	> 100 µM	–	> 100 µM	–	–	–	> 100 µM	> 100 µM	able to suppress the growth
C[C@H](NC(=O)c1c(C#Cc2ccc(F)cc2)sc2c1CCOC2)c1ccc(C(=O)O)cc1 [YJ101, (S)-4-(1-(2-((4-fluorophenyl)ethynyl)-5,7-dihydro-4H-thieno[2,3-c]pyran-3-carboxamido)ethyl)benzoic Acid]	0.1 to 1 µM	> 100 µM	> 100 µM	> 100 µM	> 10 µM	> 100 µM	–	> 10 µM	> 10 µM	> 100 µM	> 100 µM	–
C[C@H](NC(=O)c1c(CCc2ccc(F)cc2)sc2c1CC(C)(C)OC2)c1ccc(C(=O)O)cc1 [YJ110, (S)-4-(1-(2-(4-fluorophenethyl)-5,5-dimethyl-5,7-dihydro-4H-thieno[2,3-c]pyran-3-carboxamido)ethyl)benzoic Acid]	< 0.1 µM	> 100 µM	> 100 µM	> 100 µM	> 10 µM	> 100 µM	< 0.1 µM	> 10 µM	> 10 µM	> 100 µM	> 100 µM	–
C[C@H](NC(=O)c1c(Cc2ccc(C(F)(F)F)cc2)sc2c1CCOC2)c1ccc(C(=O)O)cc1 [YJ115, (S)-4-(1-(2-(4-(trifluoromethyl)benzyl)-5,7-dihydro-4H-thieno[2,3-c]pyran-3-carboxamido)ethyl)benzoic Acid]	< 0.1 µM	> 100 µM	> 100 µM	> 100 µM	–	> 100 µM	< 0.1 µM	–	–	> 100 µM	> 100 µM	able to suppress the growth
C[C@H](NC(=O)c1c(NCc2ccc(C(F)(F)F)cc2)sc2c1CCOC2)c1ccc(C(=O)O)cc1 [YJ121, (S)-4-(1-(2-((4-(trifluoromethyl)benzyl)amino)-5,7-dihydro-4H-thieno[2,3-c]pyran-3-carboxamido)ethyl)benzoic Acid]	< 0.1 µM	10 to 100 µM	10 to 100 µM	10 to 100 µM	1 to 10 µM	10 to 100 µM	< 0.1 µM	1 to 10 µM	1 to 10 µM	10 to 100 µM	10 to 100 µM	–
C[C@H](NC(=O)c1c(CCc2cccc(F)c2)sc2c1CCOC2)c1ccc(C(=O)O)cc1 [YJ113, (S)-4-(1-(2-(3-fluorophenethyl)-4,7-dihydro-5H-thieno[2,3-c]pyran-3-carboxamido)ethyl)benzoic Acid]	0.1 to 1 µM	> 100 µM	> 100 µM	> 100 µM	> 10 µM	> 100 µM	< 0.1 µM	> 10 µM	> 10 µM	> 100 µM	> 100 µM	–
